Values quoted from earlier work, collected in patent US20040109886A1 (priority 2002, published 2004).

What was measured:
[1] = base

Compound: O=C(CCCN1CC=C(n2c(=O)[nH]c3ccccc32)CC1)c1ccc(F)cc1 [droperidol]
- solubility in acidic water (acidic water): soluble
- solubility in alcohol (alcohol): high solubility
- pKa [1]: 7.64
